What was measured:
[1] = target: T1, FPR2 (Homo sapiens, UniProt P25090); assay: Ca2+ mobilization in FPR2-transfected HL60 cells; format: cell-based; settings: for Emax: HL-60, read-out: FPR2-HL60 Efficacy (converted); for selectivity index (SI) FPR1/FPR2: ratio of EC50 FPR1-HL60 / FPR2-HL60
T1 construct: expressed in transfected cells; host or cells: HL60 (human promyelocytic leukemia), stably transfected; gift from Dr. Marie-Josephe Rabiet
T1 sequence (P25090 1-351): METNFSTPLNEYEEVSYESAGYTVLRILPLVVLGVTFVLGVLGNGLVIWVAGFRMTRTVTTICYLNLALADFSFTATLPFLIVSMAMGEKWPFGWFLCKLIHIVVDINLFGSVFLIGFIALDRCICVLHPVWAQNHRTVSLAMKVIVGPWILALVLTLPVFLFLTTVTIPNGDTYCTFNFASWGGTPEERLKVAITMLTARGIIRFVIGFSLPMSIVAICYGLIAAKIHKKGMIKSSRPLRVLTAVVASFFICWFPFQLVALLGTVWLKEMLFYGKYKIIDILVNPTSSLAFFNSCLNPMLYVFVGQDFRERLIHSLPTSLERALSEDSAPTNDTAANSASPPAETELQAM
Experimental: (§1) Human promyelocytic leukemia HL60 cells stably transfected with FPR1 (FPR1-HL60 cells) or FPR2 (FPR2-HL60 cells) (kind gift from Dr. Marie-Josephe Rabiet, Université Joseph Fourier, Grenoble, France) were cultured in RPMI 1640 medium supplemented with 10% heat-inactivated fetal calf serum, 10 mM HEPES, 100 μg/mL streptomycin, 100 U/mL penicillin, and G418 (1 mg/mL). G418 was removed in the last round of culture before assays were performed.

[2] = system: human neutrophils (hPMN); assay: Ca2+ mobilization in human neutrophils (hPMN); format: cell-based; settings: Neutrophil; for Emax: read-out: hPMN Efficacy (converted)
Source text: Blood was collected from healthy donors in accordance with a protocol approved by the Institutional Review Board at Montana State University. Neutrophils were purified from the blood using dextran sedimentation, followed by Histopaque 1077 gradient separation and hypotonic lysis of red blood cells. Isolated neutrophils were washed twice and resuspended in HBSS^-. Neutrophil preparations were routinely >95% pure, as determined by light microscopy, and >98% viable, as determined by trypan blue exclusion.
Changes in intracellular Ca^2+ were measured with a FlexStation II scanning fluorometer (Molecular Devices, Sunnyvale, CA, USA). The cells, suspended in Hank’s balanced salt solution without Ca^2+ and Mg^2+ but with 10 mM HEPES (HBSS^−), were loaded with 1.25 μg/mL Fluo-4 AM dye and incubated for 30 min in the dark at 37 °C. After dye loading, the cells were washed with HBSS^- containing 10 mM HEPES, resuspended in HBSS^+ containing Ca^2+, Mg^2+, and 10 mM HEPES (HBSS^+), and aliquoted into the wells of flat-bottom, half-area-well black microtiter plates (2 × 10^5 cells/well). For the evaluation of direct agonist activity, compounds of interest were added from a source plate containing dilutions of test compounds in HBSS^+, and changes in fluorescence were monitored (λex = 485 nm, λem = 538 nm) every 5 s for 240 s at room temperature after the automated addition of compounds. Maximum change in fluorescence during the first 3 min, expressed in arbitrary units over baseline, was used to determine a response. […] Curve fitting (5–6 points) and calculation of median effective inhibitory concentrations (IC50) were performed by nonlinear regression analysis of the dose–response curves generated using Prism 9 (GraphPad Software, Inc., San Diego, CA, USA).

[3] = target: T2, FPR1 (Homo sapiens, UniProt P21462); assay: Ca2+ mobilization in FPR1-transfected HL60 cells; format: cell-based; settings: for Emax: HL-60, read-out: FPR1-HL60 Efficacy (converted)
T2 construct: expressed in transfected cells; host or cells: HL60 (human promyelocytic leukemia), stably transfected; gift from Dr. Marie-Josephe Rabiet
T2 sequence (P21462 1-350): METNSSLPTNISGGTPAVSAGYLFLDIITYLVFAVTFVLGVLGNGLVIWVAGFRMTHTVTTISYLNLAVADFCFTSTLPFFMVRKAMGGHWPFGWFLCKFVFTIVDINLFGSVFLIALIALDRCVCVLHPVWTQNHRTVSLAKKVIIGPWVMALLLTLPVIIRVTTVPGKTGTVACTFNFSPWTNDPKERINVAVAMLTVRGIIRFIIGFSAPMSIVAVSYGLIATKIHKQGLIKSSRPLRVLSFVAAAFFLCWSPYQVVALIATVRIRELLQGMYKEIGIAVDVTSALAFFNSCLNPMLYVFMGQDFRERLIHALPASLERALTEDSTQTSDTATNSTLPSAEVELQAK
Experimental: as §1

melting point | EC50 [1] [µM] | Emax [1] [%] | EC50 [2] [µM] | EC50 [3] [µM] | Emax [3] [%] | selectivity index (SI) FPR1/FPR2 [1] | Structure (SMILES) | Emax [2] [%]
180 to 182 °C (dec.) | 9.2 ± 1.9 | 100 | 4.3 ± 1.5 | 3.5 ± 0.9 | 100 | – | Cc1c(C(=O)O)cc(C#N)c(=O)n1CC(=O)Nc1ccc(Br)cc1 [Compound 2, 1-{2-[(4-Bromophenyl)amino]-2-oxoethyl}-5-cyano-2-methyl-6-oxo-1,6-dihydropyridine-3-carboxylic acid] | 120
193 to 195 °C (dec.) | 3.2 ± 0.6 | 140 | 6.4 ± 1.7 | 16.3 ± 3.4 | 115 | – | CCCOC(=O)c1cc(C#N)c(=O)n(CC(=O)Nc2ccc(Br)cc2)c1C [Compound 4a, Propyl 1-{2-[(4-bromophenyl)amino]-2-oxoethyl}-5-cyano-2-methyl-6-oxo-1,6-dihydropyridine-3-carboxylate] | 115
109 to 111 °C (dec.) | 18.3 ± 4.2 | 75 | 27.9 ± 3.2 | 29.7 ± 4.6 | 70 | – | CCCCOC(=O)c1cc(C#N)c(=O)n(CC(=O)Nc2ccc(Br)cc2)c1C [Compound 4b, Butyl 1-{2-[(4-bromophenyl)amino]-2-oxoethyl}-5-cyano-2-methyl-6-oxo-1,6-dihydropyridine-3-carboxylate] | 110
223 to 224 °C | 8.4 ± 1.7 | 85 | 10.2 ± 1.9 | 7.7 ± 1.7 | 180 | – | Cc1c(C(=O)OC(C)C)cc(C#N)c(=O)n1CC(=O)Nc1ccc(Br)cc1 [Compound 4c, Isopropyl 1-{2-[(4-bromophenyl)amino]-2-oxoethyl}-5-cyano-2-methyl-6-oxo-1,6-dihydropyridine-3-carboxylate] | 120
– | 14.1 ± 3.8 | 100 | 12.7 ± 3.9 | 20.8 ± 3.7 | 85 | – | COc1cccc(COC(=O)c2cc(C#N)c(=O)n(CC(=O)Nc3ccc(Br)cc3)c2C)c1 [Compound 4d, 3-Methoxybenzyl 1-{2-[(4-bromophenyl)amino]-2-oxoethyl}-5-cyano-2-methyl-6-oxo-1,6-dihydropyridine-3-carboxylate] | 65
– | 17.3 ± 4.1 | 75 | 17.9 ± 4.2 | 24.1 ± 5.2 | 70 | – | COc1cccc(CCOC(=O)c2cc(C#N)c(=O)n(CC(=O)Nc3ccc(Br)cc3)c2C)c1 [Compound 4e, 3-Methoxyphenethyl 1-{2-[(4-bromophenyl)amino]-2-oxoethyl}-5-cyano-2-methyl-6-oxo-1,6-dihydropyridine-3-carboxylate] | 65
– | 8.4 ± 0.6 | 125 | 29.1 ± 3.6 | 27.1 ± 4.2 | 60 | – | Cc1c(C(N)=O)cc(C#N)c(=O)n1CC(=O)Nc1ccc(Br)cc1 [Compound 6, 1-{2-[(4-Bromophenyl)amino]-2-oxoethyl}-5-cyano-2-methyl-6-oxo-1,6-dihydropyridine-3-carboxamide] | 90
> 300 °C (dec.) | 1.3 ± 0.4 | 115 | 4.9 ± 1.2 | 2.2 ± 0.6 | 105 | – | CNC(=O)c1cc(C#N)c(=O)n(CC(=O)Nc2ccc(Br)cc2)c1C [Compound 8a, 1-{2-[(4-Bromophenyl)amino]-2-oxoethyl}-5-cyano-N,2-dimethyl-6-oxo-1,6-dihydropyridine-3-carboxamide] | 105
290 °C (dec.) | 3.3 ± 0.2 | 120 | 11.4 ± 3.1 | 21.2 ± 1.2 | 145 | 6 | CCNC(=O)c1cc(C#N)c(=O)n(CC(=O)Nc2ccc(Br)cc2)c1C [Compound 8b, 1-{2-[(4-Bromophenyl)amino]-2-oxoethyl}-5-cyano-N-ethyl-2-methyl-6-oxo-1,6-dihydropyridine-3-carboxamide] | 80
274 to 276 °C (dec.) | 1.3 ± 0.1 | 135 | 7.2 ± 1.6 | 7 ± 0.7 | 120 | – | CCCNC(=O)c1cc(C#N)c(=O)n(CC(=O)Nc2ccc(Br)cc2)c1C [Compound 8c, 1-{2-[(4-bromophenyl)amino]-2-oxoethyl}-5-cyano-2-methyl-6-oxo-N-propyl-1,6-dihydropyridine-3-carboxamide] | 70
261 to 263 °C (dec.) | 1 ± 0.4 | 130 | 4 ± 0.9 | 9.1 ± 1.4 | 140 | 9 | CCCCNC(=O)c1cc(C#N)c(=O)n(CC(=O)Nc2ccc(Br)cc2)c1C [Compound 8d, 1-{2-[(4-Bromophenyl)amino]-2-oxoethyl}-N-butyl-5-cyano-2-methyl-6-oxo-1,6-dihydropyridine-3-carboxamide] | 70
122 to 124 °C | 2.4 ± 1.2 | 150 | 20.8 ± 4.8 | 18 ± 3.5 | 110 | 7.5 | Cc1c(C(=O)N(C)C)cc(C#N)c(=O)n1CC(=O)Nc1ccc(Br)cc1 [Compound 8e, 1-{2-[(4-Bromophenyl)amino]-2-oxoethyl}-5-cyano-N,N,2-trimethyl-6-oxo-1,6-dihydropyridine-3-carboxamide] | 110
– | 3.4 ± 0.7 | 130 | 7.5 ± 2.1 | 4.4 ± 0.5 | 105 | – | COc1ccc(C(=O)c2cc(C(N)=O)c(=O)n(CC(=O)Nc3ccc(Br)cc3)c2C)cc1 [Compound 10, 1-{2-[(4-bromophenyl)amino]-2-oxoethyl}-5-(4-methoxybenzoyl)-6-methyl-2-oxo-1,2-dihydropyridine-3-carboxamide] | 120
– | 1.9 ± 0.2 | 110 | 7.8 ± 2.2 | 5.2 ± 0.4 | 105 | – | COc1ccc(C(=O)c2cc(C#N)c(=O)n(CC(=O)Nc3ccc(Br)cc3)c2C)cc1 [Compound 11, N-(4-bromophenyl)-2-[3-cyano-5-(4-methoxybenzoyl)-6-methyl-2-oxopyridin-1(2H)-yl]acetamide] | 120
128 to 130 °C | – | – | – | – | – | – | COc1cccc(-c2cc(C#N)c(=O)n(CC(=O)Nc3cccc(O)c3)c2C)c1 [Compound 13b, 2-[3-Cyano-5-(3-methoxyphenyl)-6-methyl-2-oxopyridin-1(2H)-yl]-N-(3-hydroxyphenyl) acetamide] | –
127 to 129 °C | – | – | – | – | – | – | COc1cccc(-c2cc(C#N)c(=O)n(CC(=O)Nc3ccc(O)cc3)c2C)c1 [Compound 13c, 2-[3-Cyano-5-(3-methoxyphenyl)-6-methyl-2-oxopyridin-1(2H)-yl]-N-(4-hydroxyphenyl) acetamide] | –
187 to 189 °C (dec.) | 37.6 ± 5.6 | 150 | – | 40.1 ± 7.2 | 50 | – | Cc1c(-c2cccc(O)c2)cc(C#N)c(=O)n1CC(=O)Nc1cccc(O)c1 [Compound 14b, 2-[3-Cyano-5-(3-hydroxyphenyl)-6-methyl-2-oxopyridin-1(2H)-yl]-N-(3-hydroxyphenyl) acetamide] | –
232 to 234 °C (dec.) | – | – | – | – | – | – | Cc1c(-c2cccc(O)c2)cc(C#N)c(=O)n1CC(=O)Nc1ccc(O)cc1 [Compound 14c, 2-[3-Cyano-5-(3-hydroxyphenyl)-6-methyl-2-oxopyridin-1(2H)-yl]-N-(4-hydroxyphenyl) acetamide] | –

From publication PMC8587000, “Pyridinone Derivatives as Interesting Formyl Peptide Receptor (FPR) Agonists for the Treatment of Rheumatoid Arthritis” (Molecules, 2021)
